From ChEMBL document CHEMBL4402608 (J Med Chem, 2020)

How the values were obtained:
Format in all cases: cell-based
D(2) dopamine receptor [1] = biological target: T1, D(2) dopamine receptor (Homo sapiens, UniProt P14416); test: Antagonist activity at human D2R expressed in CHOK1 cells assessed as inhibition of dopamine-induced beta-arrestin recruitment measured after 120 mins by beta-galactosidase based PathHunter assay
D(2) dopamine receptor [2] = biological target: T1, D(2) dopamine receptor; test: Agonist activity at human D2R expressed in CHOK1 cells assessed as induction of beta-arrestin recruitment measured after 90 mins by beta-galactosidase based PathHunter assay
D(3) dopamine receptor = D(3) dopamine receptor (Homo sapiens, UniProt P35462); test: Agonist activity at human D3R expressed in CHOK1 cells assessed as induction of beta-arrestin recruitment measured after 90 mins by beta-galactosidase based PathHunter assay

| Structure (SMILES) | IC50 (D(2) dopamine receptor [1]; read-out: IC50) | EC50 (D(2) dopamine receptor [2]; read-out: EC50) | EC50 (D(2) dopamine receptor [2]) | EC50 (D(3) dopamine receptor; read-out: EC50) | also measured |
| --- | --- | --- | --- | --- | --- |
| COc1ccc(C(=O)N2CCN(CCOc3ccccc3)CC2)cc1 | > 100000 nM | 2300 nM |  |  |  |
| CCc1ccc(OCCN2CCN(C(=O)c3cc4ccccc4[nH]3)CC2)cc1 | > 50000 nM |  | Not Active |  |  |
| CCc1ccc(OCCN2CCN(C(=O)c3ccc(OC)cc3)CC2)cc1 | > 50000 nM |  | Not Active | 2600 nM |  |
| COc1ccc(OCCN2CCN(S(=O)(=O)c3ccc(OC)cc3)CC2)cc1 |  | > 100000 nM |  |  | IC50 (D(2) dopamine receptor [1]): Not Active; EC50 (D(3) dopamine receptor): Not Active |
| COc1ccc(OCCN2CCN(C(=O)c3ccc(OC)cc3)CC2C)cc1 (configuration not stated) | > 100000 nM |  | Not Active | 4400 nM |  |
| CC(C)(C)c1ccc(OCCN2CCN(C(=O)c3cc4ccccc4[nH]3)CC2)cc1 | > 100000 nM |  | Not Active |  | EC50 (D(3) dopamine receptor): Not Active |
| COc1ccc(OCCN2CCN(C(=O)c3cc4c(OC)cccc4[nH]3)CC2)cc1 | > 100000 nM | 5200 nM |  |  |  |
| COc1ccc(OCCCN2CCN(C(=O)c3cc4ccccc4[nH]3)CC2)cc1 |  |  |  |  | EC50 (D(3) dopamine receptor): Not Active |
| COc1ccc(OCCN2CCN(C(=O)c3nc4ccccc4[nH]3)CC2)cc1 | > 50000 nM |  | Not Active | 192 nM |  |
| COc1ccc(C(=O)N2CCN(CCOc3cc(OC)cc(OC)c3)CC2)cc1 | > 50000 nM |  | Not Active |  | EC50 (D(3) dopamine receptor): Not Active |
| COc1ccc(SCCN2CCN(C(=O)c3cc4ccccc4[nH]3)CC2)cc1 | > 100000 nM |  | Not Active |  | EC50 (D(3) dopamine receptor): Not Active |
| CSc1ccc(OCCN2CCN(C(=O)c3cc4ccccc4[nH]3)CC2)cc1 | > 100000 nM |  | Not Active | 630 nM |  |
| COc1cccc(OCCN2CCN(C(=O)c3cc4cc(OC)ccc4[nH]3)CC2)c1 |  | 1700 nM |  | 284 nM | IC50 (D(2) dopamine receptor [1]): Not Active |
| COc1ccc(C(=O)N2CCN(CCOc3ccccc3OC)CC2)cc1 |  |  |  | 278 nM |  |
| O=C(c1cc2ccc(Cl)cc2[nH]1)N1CCN(CCOc2cccnc2)CC1 |  | 183 nM |  |  | IC50 (D(2) dopamine receptor [1]): Not Active |
| COc1ccc(OCCN2CCN(C(=O)c3cc4cnccc4[nH]3)CC2)cc1 | > 100000 nM | 5500 nM |  | 576 nM |  |
| COc1ccc2cc(C(=O)N3CCN(CCOc4cccnc4)CC3)[nH]c2c1 |  |  |  | 6.4 nM |  |
| COc1ccc(OCCN(C)CCN(C)C(=O)c2ccc(OC)cc2)cc1 |  |  |  |  | EC50 (D(3) dopamine receptor): Not Active |
| COc1ccc(OCCN2CCN(C(=O)c3cc4c(C)cccc4[nH]3)CC2)cc1 |  |  |  | 266 nM |  |

| Structure (SMILES) | IC50 (D(2) dopamine receptor [1]; read-out: IC50) | EC50 (D(2) dopamine receptor [2]; read-out: EC50) | EC50 (D(2) dopamine receptor [2]) | EC50 (D(3) dopamine receptor; read-out: EC50) | also measured |
| --- | --- | --- | --- | --- | --- |
| COc1ccc(OCCN2CCN(C(=O)c3ccc(OC)cc3)C(C)C2)cc1 (configuration not stated) | > 100000 nM | 4200 nM |  |  |  |
| Cc1cc(OCCN2CCN(C(=O)c3cc4ccccc4[nH]3)CC2)ccc1Cl |  |  |  | 114 nM |  |
| COc1ccc(OCCC2CCN(C(=O)c3ccc(OC)cc3)CC2)cc1 |  |  | Not Active |  | IC50 (D(2) dopamine receptor [1]): Not Active; EC50 (D(3) dopamine receptor): Not Active |
| O=C(c1cc2cc(Cl)ccc2[nH]1)N1CCN(CCOc2cccnc2)CC1 |  | 1400 nM |  |  | IC50 (D(2) dopamine receptor [1]): Not Active |
| COc1ccc(OCCN2CCN(C(=O)c3cc4ccc(Cl)cc4[nH]3)CC2)cc1 |  |  |  | 225 nM |  |
| Cc1c(C(=O)N2CCN(CCOc3cccnc3)CC2)[nH]c2ccccc12 |  |  |  | 80 nM |  |
| COc1ccc(OCCN2CCN(C(=O)c3cc4ccc(C)cc4[nH]3)CC2)cc1 |  | 1100 nM |  | 130 nM | IC50 (D(2) dopamine receptor [1]): Not Active |
| Cc1cccc2cc(C(=O)N3CCN(CCOc4cccnc4)CC3)[nH]c12 |  |  |  | 25.7 nM |  |
| O=C(c1cc2ccccc2s1)N1CCN(CCOc2cccnc2)CC1 |  |  |  | 13.3 nM |  |
| COc1ccc(OCCN2CCN(CC(=O)c3cc4ccccc4[nH]3)CC2)cc1 |  |  | Not Active |  | IC50 (D(2) dopamine receptor [1]): Not Active; EC50 (D(3) dopamine receptor): Not Active |
| COc1ccc(N(C)CCN2CCN(C(=O)c3cc4ccccc4[nH]3)CC2)cc1 | > 100000 nM |  | Not Active |  |  |
| COc1cccc(OCCN2CCN(C(=O)c3nc4ccccc4[nH]3)CC2)c1 |  |  |  | 285 nM |  |
| COc1ccc(OCCN2CCN(C(=O)c3cc4cccnc4[nH]3)CC2)cc1 |  |  |  | 167 nM |  |
| COc1ccc(OCCN2CCN(C(=O)c3ccccc3)CC2)cc1 | > 50000 nM |  | Not Active | 548 nM |  |
| COc1cccc(OCCN2CCN(C(=O)c3cc4ccccc4[nH]3)CC2)c1 |  |  |  | 33.8 nM |  |
| O=C(c1cc2c(Cl)cccc2[nH]1)N1CCN(CCOc2cccnc2)CC1 |  | 217 nM |  |  | IC50 (D(2) dopamine receptor [1]): Not Active |
| COc1ccc(OCCN2CCN(C(=O)c3ccc4[nH]ccc4c3)CC2)cc1 | 4600 nM | 2500 nM |  |  |  |
| COc1ccc(OCCN2CCN(C(=O)c3cc4ccccc4s3)CC2)cc1 |  |  |  | 3300 nM |  |
| O=C(c1cc2ccccc2o1)N1CCN(CCOc2cccnc2)CC1 |  | 1700 nM |  | 42 nM | IC50 (D(2) dopamine receptor [1]): Not Active |
